Patent publication US20230099293A1, “OGA INHIBITOR COMPOUNDS” (priority 2019, published 2023)

Columns and labels:
[1] = target: T1, recombinant human Meningioma Expressed Antigen 5 (MGEA5), also referred to as O-GlcNAcase (OGA) (Homo sapiens, UniProt O60502); experiment: OGA biochemical assay (inhibition of FM-GlcNAc hydrolysis, fluorescence); settings: for IC50: Enzymatic hOGA; for Emax: read-out: Enzymatic Emax (%); for Enzymatic hOGA; pIC50: Table 5
T1 construct: Full length OGA enzyme was purchased at OriGene (cat #TP322411); purchased OriGene TP322411
T1 sequence (O60502 1-916): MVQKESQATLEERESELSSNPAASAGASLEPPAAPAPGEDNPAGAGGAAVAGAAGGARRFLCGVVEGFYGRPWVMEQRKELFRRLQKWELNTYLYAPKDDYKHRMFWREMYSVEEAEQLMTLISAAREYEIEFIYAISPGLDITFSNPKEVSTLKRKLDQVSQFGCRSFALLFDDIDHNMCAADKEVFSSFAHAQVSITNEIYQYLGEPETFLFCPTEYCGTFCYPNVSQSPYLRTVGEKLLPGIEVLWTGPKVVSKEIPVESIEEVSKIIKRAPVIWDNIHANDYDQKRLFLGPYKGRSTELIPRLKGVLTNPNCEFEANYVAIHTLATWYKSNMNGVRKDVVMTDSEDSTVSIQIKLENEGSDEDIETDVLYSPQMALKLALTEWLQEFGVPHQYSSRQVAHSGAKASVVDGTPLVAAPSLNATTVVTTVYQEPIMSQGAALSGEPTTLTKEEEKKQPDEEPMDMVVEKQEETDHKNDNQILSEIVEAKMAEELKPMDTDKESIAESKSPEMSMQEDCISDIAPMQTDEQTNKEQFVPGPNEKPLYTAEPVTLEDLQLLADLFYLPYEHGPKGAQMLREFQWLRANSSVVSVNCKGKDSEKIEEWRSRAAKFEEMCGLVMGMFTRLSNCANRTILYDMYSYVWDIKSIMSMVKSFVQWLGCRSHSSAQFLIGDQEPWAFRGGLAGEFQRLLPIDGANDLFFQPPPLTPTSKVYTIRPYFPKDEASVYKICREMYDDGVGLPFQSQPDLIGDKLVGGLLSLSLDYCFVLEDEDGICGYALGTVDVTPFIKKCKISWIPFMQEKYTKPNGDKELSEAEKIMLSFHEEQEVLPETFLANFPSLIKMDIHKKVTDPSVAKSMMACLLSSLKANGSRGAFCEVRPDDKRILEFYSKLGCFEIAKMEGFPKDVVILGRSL
Method in brief: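 Full-length recombinant OGA at 2 nM with 100 uM FM-GlcNAc in 200 mM citrate/phosphate buffer, 0.005% Tween-20. IC50 and Hill coefficient from curve fit between no-inhibitor and saturating standard-inhibitor controls.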

hOGA = target: T2, hOGA (Homo sapiens, UniProt O60502); experiment: OGA cellular assay (ICC detection of O-GlcNAcylated proteins in HEK293 cells inducible for P301L mutant human Tau); assay type: cell-based; parameters: Emax: dose or concentration left out as unconfirmed; settings: for EC50: Cellular hOGA; for Emax: HEK293, read-out: Cellular Emax (%)
T2 construct: endogenous in cells; host or cells: HEK293 cells inducible for P301L mutant human Tau (isoform 2N4R)
T2 sequence (O60502 1-916): T1 sequence (O60502 1-916)
Method in brief: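 HEK293 cells inducible for P301L Tau (2N4R), seeded in low-glucose medium, treated with compound for 6 h at 0.2% DMSO. After PFA fixation, O-GlcNAcylated proteins stained with CTD110.6 and imaged (488 nm intensity, 9 fields/well); Hoechst nuclei count for toxicity. IC50 by non-linear regression, Thiamet-G 200 μM as maximum.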

[2] = pIC50, Table 5, full length OGA 2 nM, FM-GlcNAc 100 uM, 6 h at room temperature
[3] = pEC50, second table, averaged values over several runs, obtained after recalibration of the equipment
[4] = pEC50, Table 5, HEK293 P301L Tau cells, 6 hours incubation, O-GlcNAcylation readout
[5] = full length OGA 2 nM, FM-GlcNAc 100 uM, 6 h at room temperature
[6] = Table 5, HEK293 P301L Tau cells, 6 hours incubation, O-GlcNAcylation readout
[7] = second table, averaged values over several runs, obtained after recalibration of the equipment

| SMILES | IC50 [1, 2] [nM] | IC50 ([1]; pIC50, second table, averaged values over several runs, obtained after recalibration of the equipment) [nM] | Emax [1] [%] | melting point [°C] | EC50 (hOGA; [3]) [nM] | EC50 (hOGA; [4]) [nM] | Emax (hOGA) [%] | Enzymatic hOGA; pIC50 [1, 5] | Cellular hOGA; pEC50 (hOGA; [6]) | Cellular hOGA; pEC50 (hOGA; [7]) |
| --- | --- | --- | --- | --- | --- | --- | --- | --- | --- | --- |
| Cc1cc(C(F)(F)F)cc(C)c1Nc1nccc2c1ncn2-c1cn(C)cn1 [Compound 82, N-(2,6-dimethyl-4-(trifluoromethyl)phenyl)-1-(1-methyl-1H-imidazol-4-yl)-1H-imidazo[4,5-c]pyridin-4-amine] | 174 | 170 | 97 | 184.8 | > 1000 | – | – | – | – | – |
| Cc1cc(C(F)(F)F)cc(F)c1Nc1nccc2c1ncn2CC(=O)N(C)C [Compound 25] | 135 | – | 96 | 226.6 | – | > 1000 | 29 | – | – | – |
| Cc1ccnc(C(C)C)c1Nc1nccc2c1ncn2CC(=O)N(C)C [Compound 14] | 14.1 | – | 100 | 223.3 | – | 427 | 75 | – | – | – |
| Cc1cc(C(F)(F)F)cc(C(C)C)c1Nc1nccc2c1ncn2CC(=O)N(C)C [Compound 12] | 10.7 | – | 101 | 234.4 | – | 46.8 | 88 | – | – | – |
| Cc1cc(C(F)(F)F)cc(C)c1Nc1nccc2c1ncn2C(C)(C)C(=O)N(C)C [Compound 71] | – | – | 6 | 260.1 | – | – | 27 | <5 | <6 | <6 |
| Cc1cc(C)cc(-n2nc(C)c(Nc3nccc4c3ncn4CC(=O)N(C)C)c2C)c1 [Compound 43] | 14.8 | – | 99 | 154.7 | – | 437 | 65 | – | – | – |
| Cc1nccc(C(F)F)c1Nc1nccc2c1ncn2CC(=O)N(C)C [Compound 27] | 372 | – | 89 | 216.6 | – | > 1000 | 18 | – | – | – |
| Cc1cc(C(F)(F)F)cc(C)c1Nc1ncc(F)c2c1ncn2CC(=O)N(C)C [Compound 35] | 178 | – | 96 | 236.7 | – | > 1000 | 25 | – | – | – |
| CCc1cc(C(F)(F)F)cc(C)c1Nc1nccc2c1ncn2CC(=O)N(C)C [Compound 10] | 9.33 | – | 100 | 211.6 | – | 100 | 100 | – | – | – |
| Cc1cc(C(F)(F)F)cc(C)c1Nc1nccc2c1cnn2CC(=O)N(C)C [Compound 64, 2-[4-[2,6-Dimethyl-4-(trifluoromethyl)anilino]pyrazolo[4,3-c]pyridin-1-yl]-N,N-dimethyl-acetamide] | 42.7 | – | 101 | 196.5 | – | 234 | 78 | – | – | – |
| Cc1n[nH]c(C)c1Nc1nccc2c1ncn2CC(=O)N(C)C [Compound 38] | 912 | – | 90 | 283.5 | – | > 1000 | 6 | – | – | – |
| Cc1ccc(-n2nc(C)c(Nc3nccc4c3ncn4CC(=O)N(C)C)c2C)cc1 [Compound 45] | 23.4 | – | 94 | 214.9 | – | 550 | 94 | – | – | – |
| Cc1cc(C(F)(F)F)cc(C)c1Nc1ncc(C)c2c1cnn2CC(=O)N(C)C [Compound 81, 2-(4-((2,6-Dimethyl-4-(trifluoromethyl)phenyl)amino)-7-methyl-1H-pyrazolo[4,3-c]pyridin-1-yl)-N,N-dimethylacetamide] | 69.2 | – | 100 | 211.6 | 151 | 537 | 66 | – | – | – |
| CCCCn1ncc2c(Nc3c(Cl)cccc3Cl)nccc21 [Compound 66, 1-Butyl-N-(2,6-dichlorophenyl)pyrazolo[4,3-c]pyridin-4-amine] | 85.1 | – | 104 | 144.7 | – | > 1000 | 45 | – | – | – |
| Cc1cc(C(F)(F)F)cc(C)c1Nc1nccc2c1ncn2CC(=O)N1CCCC1 [Compound 49] | 93.3 | – | 95 | 196.6 | – | 646 | 57 | – | – | – |
| Cc1cc(C(F)(F)F)cc(C)c1Nc1nccc2c1ncn2CC(N)=O [Compound 5, 2-[4-[2,6-Dimethyl-4-(trifluoromethyl)anilino]imidazo[4,5-c]pyridin-1-yl]acetamide] | 120 | – | 91 | 266.8 | – | 447 | 67 | – | – | – |
| Cc1cc(F)cc(C)c1Nc1nccc2c1ncn2CC(=O)N(C)C [Compound 20] | 18.6 | – | 98 | 216.7 | – | 170 | 83 | – | – | – |
| CN(C)C(=O)Cn1cnc2c(Nc3c(Cl)cc(F)cc3C(F)(F)F)nccc21 [Compound 24] | 45.7 | – | 96 | 219.9 | – | 398 | 82 | – | – | – |
| Cc1cc(C(F)(F)F)cc(C)c1Nc1nccc2c1ncn2C(C)C(=O)N(C)C (centres unmarked) [Compound 72] | – | – | 92 | 199.9 | – | – | 2 | 6.26 | <6 | <6 |
| COc1ccc(-n2nc(C)c(Nc3nccc4c3ncn4CC(=O)N(C)C)c2C)cc1 [Compound 44] | 27.5 | – | 99 | 199.9 | – | 457 | 64 | – | – | – |
| Cc1cc(OC(F)(F)F)cc(Cl)c1Nc1nccc2c1ncn2CC(=O)N(C)C [Compound 16] | 13.5 | – | 101 | 182.81 | – | 316 | 66 | – | – | – |
| Cc1ccc(-n2nc(C)c(Nc3nccc4c3ncn4CC(=O)N(C)C)c2C)cc1C [Compound 42] | 21.9 | – | 93 | 144.7 | – | 295 | 70 | – | – | – |
